Assay results published in PMC3914206.

Columns and labels:
Format in all cases: binding
Settings in all cases: Compound Concentration 10 µM
panel of 442 kinases [1] = target: T1, panel of 442 kinases (Homo sapiens, UniProt Q16659)
T1 construct: purchased KINOMEscan
Text: (§1) We assessed the selectivity of members of this scaffold using the KINOMEscan methodology across a near comprehensive panel of 442 kinases [[18,27]].

panel of 442 kinases [2] = target: T2, panel of 442 kinases (Plasmodium falciparum, UniProt P62344)
T2 construct: purchased KINOMEscan
Text: as §1

panel of 442 kinases [3] = target: T3, panel of 442 kinases (Mycobacterium tuberculosis, UniProt P9WI81)
T3 construct: purchased KINOMEscan
Text: as §1

T3 sequence (P9WI81 whole entry): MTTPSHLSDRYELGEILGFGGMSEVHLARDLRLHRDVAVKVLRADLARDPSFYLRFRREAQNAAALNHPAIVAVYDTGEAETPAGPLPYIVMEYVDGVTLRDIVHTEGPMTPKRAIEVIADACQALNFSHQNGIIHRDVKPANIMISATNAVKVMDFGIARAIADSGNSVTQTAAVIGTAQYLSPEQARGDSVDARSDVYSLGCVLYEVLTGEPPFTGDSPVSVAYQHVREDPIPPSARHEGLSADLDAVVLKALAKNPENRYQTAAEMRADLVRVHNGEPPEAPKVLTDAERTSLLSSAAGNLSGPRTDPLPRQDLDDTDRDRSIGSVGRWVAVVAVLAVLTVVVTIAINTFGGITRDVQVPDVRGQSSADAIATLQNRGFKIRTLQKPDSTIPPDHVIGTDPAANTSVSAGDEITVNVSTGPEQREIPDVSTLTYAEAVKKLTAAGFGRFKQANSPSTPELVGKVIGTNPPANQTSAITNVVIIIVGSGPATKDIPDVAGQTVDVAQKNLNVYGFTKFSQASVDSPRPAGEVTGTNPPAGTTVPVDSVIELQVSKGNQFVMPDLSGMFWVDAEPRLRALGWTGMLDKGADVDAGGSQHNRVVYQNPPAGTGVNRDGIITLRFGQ
T1 sequence (Q16659 whole entry): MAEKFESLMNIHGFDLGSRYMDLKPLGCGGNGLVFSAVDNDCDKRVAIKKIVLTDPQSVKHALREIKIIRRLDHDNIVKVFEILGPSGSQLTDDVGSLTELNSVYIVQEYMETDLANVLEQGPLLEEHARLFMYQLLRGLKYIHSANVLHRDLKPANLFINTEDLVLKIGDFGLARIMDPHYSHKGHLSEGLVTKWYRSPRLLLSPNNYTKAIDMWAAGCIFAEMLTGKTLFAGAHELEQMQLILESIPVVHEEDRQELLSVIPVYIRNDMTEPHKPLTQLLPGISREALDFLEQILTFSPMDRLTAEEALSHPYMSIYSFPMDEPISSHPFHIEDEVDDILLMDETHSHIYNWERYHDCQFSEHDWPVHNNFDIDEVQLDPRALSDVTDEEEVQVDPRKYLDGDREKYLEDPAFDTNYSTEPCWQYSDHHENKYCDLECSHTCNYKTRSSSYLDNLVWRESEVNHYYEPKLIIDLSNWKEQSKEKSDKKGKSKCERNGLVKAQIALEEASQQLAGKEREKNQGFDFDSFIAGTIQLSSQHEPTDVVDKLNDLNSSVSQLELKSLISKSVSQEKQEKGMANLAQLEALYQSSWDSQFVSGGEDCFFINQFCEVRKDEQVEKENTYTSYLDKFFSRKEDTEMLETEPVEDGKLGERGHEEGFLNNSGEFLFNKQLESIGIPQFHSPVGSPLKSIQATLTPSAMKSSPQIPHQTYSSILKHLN
T2 sequence (P62344 whole entry): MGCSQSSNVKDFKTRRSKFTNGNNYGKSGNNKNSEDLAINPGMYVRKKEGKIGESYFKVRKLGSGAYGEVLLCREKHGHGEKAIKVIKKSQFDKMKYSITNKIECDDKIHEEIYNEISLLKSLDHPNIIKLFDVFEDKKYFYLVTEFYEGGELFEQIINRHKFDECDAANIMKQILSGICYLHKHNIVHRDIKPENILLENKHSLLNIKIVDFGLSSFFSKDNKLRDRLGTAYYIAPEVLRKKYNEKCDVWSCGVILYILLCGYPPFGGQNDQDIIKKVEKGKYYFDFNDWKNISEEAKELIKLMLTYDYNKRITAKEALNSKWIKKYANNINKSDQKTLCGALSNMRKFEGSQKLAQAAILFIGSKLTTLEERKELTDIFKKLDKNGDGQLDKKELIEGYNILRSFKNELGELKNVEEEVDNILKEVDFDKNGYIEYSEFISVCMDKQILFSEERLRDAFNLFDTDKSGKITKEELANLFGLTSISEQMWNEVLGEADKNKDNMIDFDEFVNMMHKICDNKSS

Compound: CCOc1cc(C(=O)N2CCC(N3CCN(C)CC3)CC2)ccc1Nc1ncc2c(n1)N(C1CCCC1)c1ccccc1C(=O)N2C [Compound 26]
- KINOMEscan: ERK3 (panel of 442 kinases [1]): 100
- KINOMEscan: PFCDPK1(P.falciparum) (panel of 442 kinases [2]): 100
- KINOMEscan: PKNB(M.tuberculosis) (panel of 442 kinases [3]): 96

Compound: COc1cc(C(=O)N2CCC(N3CCN(C)CC3)CC2)ccc1Nc1ncc2c(n1)N(C1CCCC1)c1ccccc1C(=O)N2C [Compound 25, 11-cyclopentyl-2-((2-methoxy-4-(4-(4-methylpiperazin-1-yl)piperidine-1-carbonyl)phenyl)amino)-5-methyl-5H-benzo[e]pyrimido[5,4-b][1,4]diazepin-6(11H)-one]
- KINOMEscan: ERK3 (panel of 442 kinases [1]): 100
- KINOMEscan: PFCDPK1(P.falciparum) (panel of 442 kinases [2]): 91
- KINOMEscan: PKNB(M.tuberculosis) (panel of 442 kinases [3]): 100

Compound: COc1cc(C(=O)N2CCC(N3CCN(C)CC3)CC2)ccc1Nc1ncc2c(n1)N1CCc3cccc(c31)C(=O)N2C [Compound 24]
- KINOMEscan: PKNB(M.tuberculosis) (panel of 442 kinases [3]): 98

Compound: COc1cc(C(=O)N2CCC(N3CCN(C)CC3)CC2)ccc1Nc1ncc2c(n1)N(C)c1ccccc1C(=O)N2C [15 (LRRK2-IN-1)]
- KINOMEscan: ERK3 (panel of 442 kinases [1]): 100
- KINOMEscan: PFCDPK1(P.falciparum) (panel of 442 kinases [2]): 100
- KINOMEscan: PKNB(M.tuberculosis) (panel of 442 kinases [3]): 100
